16 compounds from patent US5955440A, “Macrolide LHRH antagonists” (Abbott Laboratories, priority 1998, dated 1999) can be followed below.

For the first experiment, the target named is T1, LHRH rat pituitary receptor (Rattus norvegicus, UniProt P30969).
T1 construct: from tissue; host or cells: rat pituitary
T1 sequence (P30969 1-327): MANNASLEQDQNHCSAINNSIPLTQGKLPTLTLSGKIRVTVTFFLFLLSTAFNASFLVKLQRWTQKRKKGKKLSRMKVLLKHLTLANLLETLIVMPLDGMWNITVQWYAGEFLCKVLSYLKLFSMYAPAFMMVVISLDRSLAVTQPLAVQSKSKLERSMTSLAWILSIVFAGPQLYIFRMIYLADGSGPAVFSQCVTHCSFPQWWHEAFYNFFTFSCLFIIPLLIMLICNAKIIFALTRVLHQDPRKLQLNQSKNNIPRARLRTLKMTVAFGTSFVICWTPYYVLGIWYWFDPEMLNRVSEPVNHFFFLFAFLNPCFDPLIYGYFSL
The experiment can be described thus: LHRH rat pituitary receptor binding (pKI). The note with it: negative logarithm of the equilibrium dissociation constants, Table 1. As to the method: Representative compounds of the present invention were evaluated in in vitro tests for LHRH rat pituitary receptor binding (pKI) and for LH inhibition from rat pituitary cells for antagonist potency (pA2). The tests employed the methods detailed in F. Haviv, et al. J. Med. Chem., 32: 2340-2344 (1989). The receptor binding affinity (pKI) is the negative logarithm of the equilibrium dissociation constants.
Take `CC[C@H]1OC(=O)[C@H](C)[C@@H](O[C@H]2C[C@@](C)(OC)[C@@H](O)[C@H](C)O2)[C@H](C)[C@@H](O[C@@H]2O[C@H](C)C[C@H](N(C)CCC3CC3)[C@H]2O)[C@](C)(OC)C[C@@H](C)C(=O)[C@H](C)[C@H]2N(CCc3ccc(Cl)cc3)C(=O)O[C@]12C` [Example 38, 3'-N-Desmethyl-3'-N-[2-(cyclopropyl)-ethyl]-11-deoxy-11-[carboxy-(4-chlorophenethylamino)]-6-O-methyl-erythromycin A 11,12-(cyclic carbamate)]: the “receptor binding affinity (pKI)” value was determined as 8.17.

The experiment is the same for the next values; noted with them: negative logarithm of the equilibrium dissociation constants, Table 1, read-out: receptor binding affinity (pKI) (converted).
Turning to `CC[C@H]1OC(=O)[C@H](C)[C@@H](O[C@H]2C[C@@](C)(OC)[C@@H](O)[C@H](C)O2)[C@H](C)[C@@H](O[C@@H]2O[C@H](C)C[C@H](N(C)C3CCCC3)[C@H]2O)[C@](C)(OC)C[C@@H](C)C(=O)[C@H](C)[C@H]2N(CCc3cccc(Cl)c3)C(=O)O[C@]12C` [Example 24, 3'-N-Desmethyl-3'-N-cyclopentyl-11-deoxy-11-[carboxy-(3-chlorophenethylamino)]-6-O-methyl-erythromycin A 11,12-(cyclic carbamate)], the Ki was 2.75 nM.
On to `CC[C@H]1OC(=O)[C@H](C)[C@@H](O[C@H]2C[C@@](C)(OC)[C@@H](O)[C@H](C)O2)[C@H](C)[C@@H](O[C@@H]2O[C@H](C)C[C@H](N(C)Cc3ccncc3)[C@H]2O)[C@](C)(OC)C[C@@H](C)C(=O)[C@H](C)[C@H]2N(CCc3ccc(Cl)cc3)C(=O)O[C@]12C` [Example 34, 3'-N-Desmethyl-3'-N-(4-pyridylmethyl)-11-deoxy-11-[carboxy-(4-chlorophenethylamino)]-6-O-methyl-erythromycin A 11,12-(cyclic carbamate)], for which the Ki was 10 nM.
Still for that read-out and setting: as for `CCC(C)N(C)[C@H]1C[C@@H](C)O[C@@H](O[C@@H]2[C@@H](C)[C@H](O[C@H]3C[C@@](C)(OC)[C@@H](O)[C@H](C)O3)[C@@H](C)C(=O)O[C@H](CC)[C@@]3(C)OC(=O)N(CCc4ccc(Cl)cc4)[C@@H]3[C@@H](C)C(=O)[C@H](C)C[C@@]2(C)OC)[C@@H]1O` (stereo partly shown) [Example 35, 3'-N-Desmethyl-3'-N-(2-butyl)-11-deoxy-11-[carboxy-(4-chlorophenethylamino)]-6-O-methyl-erythromycin A 11,12-(cyclic carbamate)], the figure is 7.59 nM.
The same measure, in the same setting: to `CCC(CC)N(C)[C@H]1C[C@@H](C)O[C@@H](O[C@@H]2[C@@H](C)[C@H](O[C@H]3C[C@@](C)(OC)[C@@H](O)[C@H](C)O3)[C@@H](C)C(=O)O[C@H](CC)[C@@]3(C)OC(=O)N(CCc4ccc(Cl)cc4)[C@@H]3[C@@H](C)C(=O)[C@H](C)C[C@@]2(C)OC)[C@@H]1O` [Example 36, 3'-N-Desmethyl-3'-N-(3-pentyl)-11-deoxy-11-[carboxy-(4-chlorophenethylamino)]-6-O-methyl-erythromycin A 11,12-(cyclic carbamate)] belongs 9.12 nM; to `CC[C@H]1OC(=O)[C@H](C)[C@@H](O[C@H]2C[C@@](C)(OC)[C@@H](O)[C@H](C)O2)[C@H](C)[C@@H](O[C@@H]2O[C@H](C)C[C@H](N(C)CC3CC3)[C@H]2O)[C@](C)(OC)C[C@@H](C)C(=O)[C@H](C)[C@H]2N(CCc3ccc(Cl)cc3)C(=O)O[C@]12C` [Example 37, 3'-N-Desmethyl-3'-N-(cyclopropylmethyl)-11-deoxy-11-[carboxy-(4-chlorophenethylamino)]-6-O-methyl-erythromycin A 11,12-(cyclic carbamate)], 9.12 nM; to `CCCN(C)[C@H]1C[C@@H](C)O[C@@H](O[C@@H]2[C@@H](C)[C@H](O[C@H]3C[C@@](C)(OC)[C@@H](O)[C@H](C)O3)[C@@H](C)C(=O)O[C@H](CC)[C@@]3(C)OC(=O)N(CCc4ccc(OC)cc4)[C@@H]3[C@@H](C)C(=O)[C@H](C)C[C@@]2(C)OC)[C@@H]1O` [Example 39, 3'-N-Desmethyl-3'-N-propyl-11-deoxy-11-[carboxy-(4-methoxyphenethylamino)]-6-O-methyl-erythromycin A 11,12-(cyclic carbamate)], 5.13 nM.
Same read-out and setting: as for `CC[C@H]1OC(=O)[C@H](C)[C@@H](O[C@H]2C[C@@](C)(OC)[C@@H](O)[C@H](C)O2)[C@H](C)[C@@H](O[C@@H]2O[C@H](C)C[C@H](N(C)C3CCCC3)[C@H]2O)[C@](C)(OC)C[C@@H](C)C(=O)[C@H](C)[C@H]2N(CCc3ccc(OC)cc3)C(=O)O[C@]12C` [Example 40, 3'-N-Desmethyl-3'-N-cyclopentyl-11-deoxy-11-[carboxy-(4-methoxyphenethylamino)]-6-O-methyl-erythromycin A 11,12-(cyclic carbamate)], the figure is 5.75 nM; as for `CCCN(C)[C@H]1C[C@@H](C)O[C@@H](O[C@@H]2[C@@H](C)[C@H](O[C@H]3C[C@@](C)(OC)[C@@H](O)[C@H](C)O3)[C@@H](C)C(=O)O[C@H](CC)[C@@]3(C)OC(=O)N(CCc4ccc(C)c(C)c4)[C@@H]3[C@@H](C)C(=O)[C@H](C)C[C@@]2(C)OC)[C@@H]1O` [Example 41, 3'-N-Desmethyl-3'-N-propyl-11-deoxy-11-[carboxy-(3,4-dimethylphenethylamino)]-6-O-methyl-erythromycin A 11,12-(cyclic carbamate)], 8.51 nM.
For the compound `CC[C@H]1OC(=O)[C@H](C)[C@@H](O[C@H]2C[C@@](C)(OC)[C@@H](O)[C@H](C)O2)[C@H](C)[C@@H](O[C@@H]2O[C@H](C)C[C@H](N(C)C3CCCC3)[C@H]2O)[C@](C)(OC)C[C@@H](C)C(=O)[C@H](C)[C@H]2N(CCc3ccc(OC)c(Br)c3)C(=O)O[C@]12C` [Example 42, 3'-N-Desmethyl-3'-N-cyclopentyl-11-deoxy-11-[carboxy-(3-bromo-4-methoxyphenethylamino)]-6-O-methyl-erythromycin A 11,12-(cyclic carbamate)], the Ki was 7.24 nM.
Still for that read-out and setting: to `CCCN(C)[C@H]1C[C@@H](C)O[C@@H](O[C@@H]2[C@@H](C)[C@H](O[C@H]3C[C@@](C)(OC)[C@@H](O)[C@H](C)O3)[C@@H](C)C(=O)O[C@H](CC)[C@@]3(C)OC(=O)N(CCc4ccc(OC)c(Br)c4)[C@@H]3[C@@H](C)C(=O)[C@H](C)C[C@@]2(C)OC)[C@@H]1O` [Example 43, 3'-N-Desmethyl-3'-N-propyl-11-deoxy-11-[carboxy-(3-bromo-4-methoxyphenethylamino)]-6-O-methyl-erythromycin A 11,12-(cyclic carbamate)] belongs 3.55 nM; to `CCCN(C)[C@H]1C[C@@H](C)O[C@@H](O[C@@H]2[C@@H](C)[C@H](O[C@H]3C[C@@](C)(OC)[C@@H](O)[C@H](C)O3)[C@@H](C)C(=O)O[C@H](CC)[C@@]3(C)OC(=O)N(CCc4ccc(F)c(Cl)c4)[C@@H]3[C@@H](C)C(=O)[C@H](C)C[C@@]2(C)OC)[C@@H]1O` [Example 44, 3'-N-Desmethyl-3'-N-propyl-11-deoxy-11-[carboxy-(3-chloro-4-fluorophenethylamino)]-6-O-methyl-erythromycin A 11,12-(cyclic carbamate)], 1.45 nM; to `CC[C@H]1OC(=O)[C@H](C)[C@@H](O[C@H]2C[C@@](C)(OC)[C@@H](O)[C@H](C)O2)[C@H](C)[C@@H](O[C@@H]2O[C@H](C)C[C@H](N(C)Cc3ccco3)[C@H]2O)[C@](C)(OC)C[C@@H](C)C(=O)[C@H](C)[C@H]2N(CCc3ccc(F)c(Cl)c3)C(=O)O[C@]12C` [Example 45, 3'-N-Desmethyl-3'-N-(2-furyl)methyl-11-deoxy-11-[carboxy-(3-chloro-4-fluorophenethylamino)]-6-O-methyl-erythromycin A 11,12-(cyclic carbamate)], 3.55 nM.
On the same count and under the same terms, to `CC[C@H]1OC(=O)[C@H](C)[C@@H](O[C@H]2C[C@@](C)(OC)[C@@H](O)[C@H](C)O2)[C@H](C)[C@@H](O[C@@H]2O[C@H](C)C[C@H](N(C)Cc3ccc(CO)o3)[C@H]2O)[C@](C)(OC)C[C@@H](C)C(=O)[C@H](C)[C@H]2N(CCc3ccc(F)c(Cl)c3)C(=O)O[C@]12C` [Example 46, 3'-N-Desmethyl-3'-N-[2-(5-hydroxymethyl)furyl]methyl-11-deoxy-11-[carboxy-(3-chloro-4-fluorophenethylamino)]-6-O-methyl-erythromycin A 11,12-(cyclic carbamate)] belongs 1.15 nM.
For the compound `CC[C@H]1OC(=O)[C@H](C)[C@@H](O[C@H]2C[C@@](C)(OC)[C@@H](O)[C@H](C)O2)[C@H](C)[C@@H](O[C@@H]2O[C@H](C)C[C@H](N(C)Cc3ccccn3)[C@H]2O)[C@](C)(OC)C[C@@H](C)C(=O)[C@H](C)[C@H]2N(CCc3ccc(F)c(Cl)c3)C(=O)O[C@]12C` [Example 47, 3'-N-Desmethyl-3'-N-(2-pyridyl)methyl-11-deoxy-11-[carboxy-(3-chloro-4-fluorophenethylamino)]-6-O-methyl-erythromycin A 11,12-(cyclic carbamate)], the Ki was 2.51 nM.
Consider `CC[C@H]1OC(=O)[C@H](C)[C@@H](O[C@H]2C[C@@](C)(OC)[C@@H](O)[C@H](C)O2)[C@H](C)[C@@H](O[C@@H]2O[C@H](C)C[C@H](N(C)Cc3cccc(C)n3)[C@H]2O)[C@](C)(OC)C[C@@H](C)C(=O)[C@H](C)[C@H]2N(CCc3ccc(F)c(Cl)c3)C(=O)O[C@]12C` [Example 48, 3'-N-Desmethyl-3'-N-[2-(6-methyl)pyridyl]methyl-11-deoxy-11-[carboxy-(3-chloro-4-fluorophenethylamino)]-6-O-methyl-erythromycin A 11,12-(cyclic carbamate)], for which the Ki is 1.91 nM.
